# Measurements published in patent US5886000A, “Anti-HIV agent” (Nissui Pharmaceutical Co., Ltd,, priority 1994, dated 1999).
# Read-outs that look alike come from different tables or passages of the source.
# Tests used:
# CEM/LAV-1 = test: Anti-HIV activity in persistently infected CEM/LAV-1 cells; format: cell-based
# Description: (§1) Predetermined concentrations of test agents were separately added to cells (2×10^5 cells/ml, 10 ml) persistently infected with HIV in a logarithmic growth phase to culture them for 96 hours, thereby counting the number of living cells and the number of killed cells every 24 hours by a trypan blue dye exclusion test to determine the cytotoxic effects of the test agents on the cells. A viral infectious titer (TCID50 /ml) in each of the culture solutions incubated for 96 hours was determined by 72-hour culture using, as an index, the giant cell formation of MT-4 cells. As a control, culture was conducted in a medium free of any agent. An anti-HIV activity (inhibition %) was determined in accordance with the following equation. [formula]
# H9 /MN = test: Anti-HIV activity in persistently infected H9 /MN cells; format: cell-based
# Description: as §1
# Molt-4/IIIB = test: Anti-HIV activity in persistently infected Molt-4/IIIB cells; format: cell-based; settings: Human immunodeficiency virus 1, IIIB, read-out: Anti-HIV activities (inhibition %)
# Description: as §1
# U937 /RF = test: Anti-HIV activity in persistently infected U937 /RF cells; format: cell-based
# Description: as §1
# AIDS = settings: clinical use; cited from earlier work
# Tat = molecular target: T1, Tat (Human immunodeficiency virus type 1 group M subtype B, UniProt P04608); test: Tat-inhibiting effect (reporter plasmid and Tat activator plasmid cotransfected into COS-7 cells); format: cell-based, HIV
# T1 construct: expressed in transfected cells; host or cells: COS-7 cells
# T1 sequence (P04608 whole entry): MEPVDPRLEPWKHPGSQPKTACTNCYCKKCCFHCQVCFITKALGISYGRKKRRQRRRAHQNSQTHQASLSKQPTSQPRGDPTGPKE
# Description: After a reporter plasmid and an activator plasmid of Tat were cotransfected into COS-7 cells by a DEAE dextran method to culture the cells at 37° C. for 24 hours in the presence of 5% CO2, the transfectant was added to 96-well microplates, in which a test agent had been placed in advance, in a proportion of 1×10^4 cells/well, followed by reculture at 37° C. for 3 days in the presence of 5% CO2. A supernatant (50 μl) of each of the cultures was then added to another 96-well microplate in which p-nitrophenyl phosphate as a substrate and a buffer had been placed, followed by incubation at 37° C. for 3 hours. The variation in absorbance at 405 nm due to p-nitrophenol formed was then measured to determine the presence of a Tat-inhibiting effect.
# CEM cells = test: Cytotoxicity test, CEM cells (trypan blue dye exclusion); format: cell-based; settings: concentrations not greater than 500 μM
# Description: (§2) Culture solutions (10 ml) of CEM and a strain CEM/LAV persistently producing HIV-1, both, in a logarithmic growth phase were prepared with media containing various concentrations of a test agent so as to give a concentration of 2.5×10^5 cells/ml, followed by culture at 37° C. in the presence of 5% CO2. After pipetting each cells culture solution every 24 hours, it was collected to count the number of living cells and the number of killed cells by a trypan blue dye exclusion test.
# CEM/LAV cells = test: Cytotoxicity test, CEM/LAV cells persistently producing HIV-1 (trypan blue dye exclusion); format: cell-based; settings: 500 μM
# Description: as §2
# [1] = test system: primarily infected CEM cells; test: Effect on growth of primarily infected CEM cells; format: cell-based, HIV-1; settings: concentrations not greater than 500 μM
# Description: (§3) Cells were collected from a culture solution (1.0×10^6 cells/ml, 108 ml) of CEM in a logarithmic growth phase by centrifugation (260×g, 5 minutes). An HIV-1 virus solution (12×10^5 TCID50) was added to the cells to culture them at 37° C. for 24 hours in 180 ml of a medium, thereby adsorbing the virus thereon. After a culture supernatant containing the virus was then removed by centrifugation (260×g, 5 minutes), and the residue was washed three times with 50 ml of an RPMI-1640 basal medium under centrifugation (260×g, 5 minutes), media separately containing predetermined concentrations of test agents were used to prepare cell suspensions (1×10^5 cells/ml, 50 ml×2 sample for each concentration of the test agents). Each of these cell culture solutions was collected in 25-ml portions every 24 hours until 96 hours passed by. The collected solutions were subjected to SDS-PAGE, followed by western immunoblotting to detect virus-constituting proteins. Incidentally, an HIV-1 positive serum was used as a primary antibody.
# [2] = test system: HIV-1 in primarily infected CEM cells; test: Viral infectious titer in culture supernatant of primarily infected CEM cells; format: cell-based; settings: Human immunodeficiency virus 1, CCRF-CEM, % of a control
# [3] = test system: HIV-constituting proteins (p24, p41); test: Detection of HIV-constituting proteins by western immunoblotting, primarily infected CEM cells; format: cell-based, HIV-1; settings: 500 μM
# Description: as §3
# [4] = test system: CEM/LAV-1, H9 /MN and Molt-4/IIIB cells; test: Anti-HIV activity, summary over CEM/LAV-1, H9 /MN and Molt-4/IIIB cells; format: cell-based; settings: 500 μM
# Description: as §1
# [5] = Human immunodeficiency virus 1, 50 μM, 96 hours, read-out: Anti-HIV activities (inhibition %)
# [6] = Human immunodeficiency virus 1, 96 h, read-out: Anti-HIV activities (inhibition %)
# [7] = Human immunodeficiency virus 1, U-937, 50 μM, 96 hours, read-out: Anti-HIV activities (inhibition %)
# [8] = COS-7, control = 100, read-out: Specific activity (%) (Average ± SE)
# [9] = Human immunodeficiency virus 1, 125 μM, 96 hours, read-out: Anti-HIV activities (inhibition %)
# [10] = Human immunodeficiency virus 1, 500 μM, 96 hours, read-out: Anti-HIV activities (inhibition %)
structure (smiles),measurement,setting,value
"CC(=C(CCO)SSCC1CCCO1)N(C=O)Cc1cnc(C)nc1N (stereo in doubt) [Fursultiamine, fursultiamine]",anti-HIV activity (in words),CEM/LAV-1; 50 μM,marked anti-HIV activities
same,inhibition at 50 µM,CEM/LAV-1; [5],95%
same,anti-HIV activity (in words),H9 /MN; 50 μM,marked anti-HIV activities
same,inhibition at 50 µM,H9 /MN; [6],96%
same,inhibition at 50 µM,"Molt-4/IIIB; MOLT-4, 96 h",0%
same,anti-HIV activity (in words),U937 /RF; 50 μM,marked anti-HIV activities
same,inhibition at 50 µM,"U937 /RF; Human immunodeficiency virus 1, U-937, 96 h, read-out: Anti-HIV activities (inhibition %)",60%
"Cc1cn([C@H]2C[C@H](N=[N+]=[N-])[C@@H](CO)O2)c(=O)[nH]c1=O [AZT, azidothymidine]",side effects,AIDS,"headache, gastrointestinal disorders and a myelodepresant effect"
"C=CCSSC(CCO)=C(C)N(C=O)Cc1cnc(C)nc1N [Alitiamine, alitiamine]",anti-HIV activity (in words),CEM/LAV-1; 50 μM,marked anti-HIV activities
same,inhibition at 50 µM,H9 /MN; [5],0%
same,inhibition at 50 µM,"Molt-4/IIIB; MOLT-4, 50 μM, 96 hours",0%
same,inhibition at 50 µM,U937 /RF; [7],0%
"CC(=C(CCOC(=O)C(C)C)SSC(CCOC(=O)C(C)C)=C(C)N(C=O)Cc1cnc(C)nc1N)N(C=O)Cc1cnc(C)nc1N [Bisibutiamine, bisibutiamine]",inhibition at 50 µM,CEM/LAV-1; [6],0%
same,anti-HIV activity (in words),H9 /MN; 50 μM,marked anti-HIV activities
same,inhibition at 50 µM,H9 /MN; [5],60%
same,inhibition at 50 µM,"Molt-4/IIIB; MOLT-4, 50 μM, 96 hours",0%
same,inhibition at 50 µM,U937 /RF; [7],0%
N[C@@H](CCC(=O)N[C@@H](CS)C(=O)NCC(=O)O)C(=O)O [Glutathione],activity at 250 µM,Tat; [8],110 ± 17%
CC(=O)N[C@@H](CS)C(=O)O [N-Acetylcysteine],activity at 125 µM,Tat; [8],107 ± 13%
same,activity at 250 µM,Tat; [8],92 ± 8%
same,activity at 500 µM,Tat; [8],81.5 ± 5.7%
"CC(=C(CCO)SSC(CCO)=C(C)N(C=O)Cc1cnc(C)nc1N)N(C=O)Cc1cnc(C)nc1N [Thiamine disulfide, thiamine disulfide]",activity at 125 µM,Tat; [8],92.3 ± 6.1%
same,activity at 250 µM,Tat; [8],64.4 ± 6.1%
same,activity at 500 µM,Tat; [8],36.1 ± 6.3%
same,inhibition of the activity of Tat,Tat; concentrations of 125-500 μM,inhibited the activity of Tat in dependence on dose
same,effect on growth and proliferation of CEM cells,CEM cells,did not affect the growth and proliferation
same,effect on growth and proliferation of CEM/LAV cells,CEM/LAV cells,clearly inhibited the growth and proliferation
same,number of killed cells,CEM/LAV cells,the number of killed cells did not increase
same,effect on growth of primarily infected CEM cells,[1],did not affect the growth
same,activity at 500 µM,[2],0.3%
same,formation of p24 and p41 protein in culture supernatant,[3],neither p24 protein nor p41 protein was formed
same,inhibition at 125 µM,CEM/LAV-1; [9],51%
same,inhibition at 500 µM,CEM/LAV-1; [10],90%
same,inhibition at 125 µM,H9 /MN; [9],90%
same,inhibition at 500 µM,H9 /MN; [10],99%
same,inhibition at 125 µM,"Molt-4/IIIB; MOLT-4, 125 μM, 96 hours",80%
same,inhibition at 500 µM,"Molt-4/IIIB; MOLT-4, 500 μM, 96 hours",97%
same,inhibition at 125 µM,"U937 /RF; Human immunodeficiency virus 1, U-937, 125 μM, 96 hours, read-out: Anti-HIV activities (inhibition %)",0%
same,inhibition at 500 µM,"U937 /RF; Human immunodeficiency virus 1, U-937, 500 μM, 96 hours, read-out: Anti-HIV activities (inhibition %)",80%
same,anti-HIV activity (in words),U937 /RF; concentration not given,marked anti-HIV activities
same,anti-HIV activity (in words),[4],marked anti-HIV activities
O=C(O)CCCCC1CCSS1 (stereo not drawn) [α-Lipoic acid],activity at 62.5 µM,"Tat; COS-7, 62.5 μM, control = 100, read-out: Specific activity (%) (Average ± SE)",78.8 ± 7.4%
same,activity at 125 µM,Tat; [8],41.6 ± 9.9%
same,activity at 250 µM,Tat; [8],17.5 ± 2.1%
